Experimental data as given in ChEMBL document CHEMBL5728514, “[1,2,4]Triazolo[4,3-a]quinoxaline derivative, method for preparing same, and pharmaceutical composition for preventing or treating BET protein-related diseases, containing same as active ingredient” (2021).

Biological target: Bromodomain-containing protein 4 (Homo sapiens, UniProt O60885)
Assay: A mixture comprising 100 nM GST-BRD4 (BD1+BD2) and 100 nM biotinylated acetyl-histone H4 (Lys5,8,12,16) peptide was prepared in assay buffer (50 mM HEPES pH 7.4; 25 mM NaCl; 0.05% Tween 20; 0.1% bovine serum albumin (BSA); 10 mM dithiothreitol (DTT)). After adding 6 μl of the mixture to the diluent, 6 μl of the pre-mixed AlphaLISA Glutathione Acceptor Beads and AlphaScreen Streptavidin Donor Beads (PerkinElmer, 10 μg/ml in assay buffer, respectively) was added thereto. The samples were incubated in the dark at room temperature for 30 minutes (shaking at 300 rpm). Then, the signals were measured with PerkinElmer Envision HTS Multilabel Reader using an alpha screen protocol of PerkinElmer. Each plate contained the negative control in which biotinylated acetyl-histone H4 peptide and GST-BRD4 (BD1+BD2) were replaced by assay buffer. In the case of using the software GraphPad Prism for calculation, the negative control point was input as a low standard value. The positive control (probe molecule l-BET762 containing protein/peptide mixture) proceeded to pipetting.

IC50	SMILES
58 nM	Cc1nnc2c(NCCCCNC(=O)c3ccccc3)nc3ccccc3n12
56 nM	Cc1nnc2c(NCCCCNC(=O)c3ccccc3)nc3ccc(NC(=O)C(C)C)cc3n12
61 nM	Cc1nnc2c(NCCCCNC(=O)C(C)(C)C)nc3ccc(F)cc3n12
91 nM	COCCOc1ccc2c(c1)nc(NCCCCNC(C)=O)c1nnc(C)n12
91 nM	Cc1nnc2c(NCCCCNC(=O)OC(C)C)nc3c(C(F)(F)F)cc(F)cc3n12
77 nM	Cc1nnc2c(NCCCCNC(=O)C(C)C)nc3ccc(F)cc3n12
56 nM	Cc1ccc2nc(NCCCCNC(=O)C(C)(C)C)c3nnc(C)n3c2c1
